Assay results taken from patent US20260042764A1, “COMPOSITIONS AND METHODS FOR INHIBITION OF KRAS” (TheRas, Inc., priority 2022, published 2026).

Legend:
[1] = target: T1, Avi-KRAS G12R (1-169) GppNHp/RAF1 RBD-3xFLAG (52-151) (Homo sapiens, UniProt P01116, G12R); assay: Raf1-KRAS G12R-GppNHP disruption HTRF assay (Biological Example 1); type: binding
T1 construct: Avi-KRAS G12R (1-169)
Summary of the method: (§1)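 Using HTRF, the loss of KRAS–effector RAF1 complex was quantified in 50 mM Tris pH 7.5 buffer with 100 mM NaCl and 0.1% BSA. The protein step and reagent step ran 1 h each at room temperature. Activity normalized with DMSO taken as 100%.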

SW620 cells (KRAS G12V) = assay: Cell-based pERK HTRF assay in SW620 cell (Biological Example 4); conditions: Homo sapiens, SW-620, SW620 (KRAS G12V) cells, pERK HTRF
Summary of the method: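 In SW620 cells grown in RPMI with 10% FBS, a 4 h compound treatment (0.25% DMSO, 9-point curve from 1 μM) preceded lysis. Phospho-ERK levels were then read by time-resolved FRET at 615 nm emission.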

GP2d cells (KRAS G12D) = assay: Cell-based pERK HTRF assay in GP2d cell (Biological Example 2); conditions: GP2d, GP2d (KRAS G12D) cells, pERK HTRF
Summary of the method: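 Phospho-ERK in lysed cells was detected by HTRF using Eu cryptate and d2 antibodies, read between 4 and 24 h at room temperature. Prior to lysis, KRAS G12D GP2d cells, seeded the day before in DMEM with 10% FBS, were exposed to compounds for 60 min. Compounds were tested as 9-point half-log curves from 1 μM or 100 nM top, with 0.25% DMSO.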

[2] = target: T2, Avi-KRAS WT (1-169) GppNHp/RAF1 RBD-3xFLAG (52-151) (Homo sapiens, UniProt P01116); assay: Raf1-KRAS WT-GppNHP disruption HTRF assay (Biological Example 1); type: binding
T2 construct: Avi-KRAS WT (1-169)
Summary of the method: as §1

[3] = target: T3, Avi-KRAS G12V (1-169) GppNHp/RAF1 RBD-3xFLAG (52-151) (Homo sapiens, UniProt P01116, G12V); assay: Raf1-KRAS G12V-GppNHP disruption HTRF assay (Biological Example 1); type: binding
T3 construct: Avi-KRAS G12V (1-169)
Summary of the method: as §1

[4] = target: T4, Avi-KRAS G12D (1-169) GppNHp/RAF1 RBD-3xFLAG (52-151) (Homo sapiens, UniProt P01116, G12D); assay: Raf1-KRAS G12D-GppNHP disruption HTRF assay (Biological Example 1); type: binding
T4 construct: Avi-KRAS G12D (1-169)
Summary of the method: as §1

[5] = KRAS G12R, GppNHp-loaded, class symbols
[6] = KRAS WT, GppNHp-loaded, class symbols
[7] = KRAS G12V, GppNHp-loaded, class symbols
[8] = KRAS G12D, GppNHp-loaded, class symbols
[9] = KRAS G12R, GppNHp-loaded, Table 11
[10] = KRAS WT, GppNHp-loaded, Table 11
[11] = KRAS G12V, GppNHp-loaded, Table 11
[12] = KRAS G12D, GppNHp-loaded, Table 11

T1 sequence (P01116 1-169 isoform P01116-2 G12R): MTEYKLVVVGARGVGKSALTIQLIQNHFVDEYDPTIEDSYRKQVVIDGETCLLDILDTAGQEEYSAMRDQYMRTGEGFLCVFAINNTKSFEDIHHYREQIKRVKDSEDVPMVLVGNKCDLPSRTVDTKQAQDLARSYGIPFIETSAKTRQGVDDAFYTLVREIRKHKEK
T2 sequence (P01116 1-169 isoform P01116-2): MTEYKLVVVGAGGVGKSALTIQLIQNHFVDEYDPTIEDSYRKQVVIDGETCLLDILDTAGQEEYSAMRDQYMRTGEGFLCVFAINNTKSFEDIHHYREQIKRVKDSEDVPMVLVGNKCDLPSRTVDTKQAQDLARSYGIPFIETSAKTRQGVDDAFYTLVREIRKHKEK
T3 sequence (P01116 1-169 isoform P01116-2 G12V): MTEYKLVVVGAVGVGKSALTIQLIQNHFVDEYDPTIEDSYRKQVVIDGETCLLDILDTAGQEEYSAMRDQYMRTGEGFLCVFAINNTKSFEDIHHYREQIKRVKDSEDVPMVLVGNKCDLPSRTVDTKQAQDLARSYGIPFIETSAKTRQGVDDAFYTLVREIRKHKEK
T4 sequence (P01116 1-169 isoform P01116-2 G12D): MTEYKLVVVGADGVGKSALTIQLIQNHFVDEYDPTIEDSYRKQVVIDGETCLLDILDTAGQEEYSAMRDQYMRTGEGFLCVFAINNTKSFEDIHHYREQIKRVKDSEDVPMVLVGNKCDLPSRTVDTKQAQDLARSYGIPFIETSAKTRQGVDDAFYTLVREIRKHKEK

Row | SMILES | IC50 [1, 5] [nM] | IC50 (SW620 cells (KRAS G12V); class symbols) [nM] | IC50 (GP2d cells (KRAS G12D); class symbols) [nM] | IC50 [2, 6] [nM] | IC50 [3, 7] [nM] | IC50 [4, 8] [nM] | IC50 [1, 9] [nM] | IC50 (SW620 cells (KRAS G12V)) [nM] | IC50 (GP2d cells (KRAS G12D)) [nM] | IC50 [2, 10] [nM] | IC50 [3, 11] [nM] | IC50 [4, 12] [nM] | IC50 ([1]; KRAS G12R-GppNHp/RAF1 RBD HTRF) [nM] | IC50 ([2]; KRAS WT-GppNHp/RAF1 RBD HTRF) [nM] | IC50 ([3]; KRAS G12V-GppNHp/RAF1 RBD HTRF) [nM] | IC50 ([4]; KRAS G12D-GppNHp/RAF1 RBD HTRF) [nM]
1 | CCN(c1nc(OC[C@@]23CCCN2C[C@H](F)C3)nc2c(F)c(-c3ccc(F)c4sc(N)c(C#N)c34)c(C(F)(F)F)cc12)[C@H]1CCN(C(=O)[C@H]2CCCO2)C1 (atropisomer, axis not shown) [Compound 735] | < 100 | < 100 | < 100 | < 100 | < 100 | < 100 |  |  |  |  |  |  |  |  |  | 
2 | C[C@]1(O)CCN(c2nc(OC[C@@]34CCCN3C[C@H](F)C4)nc3c(F)c(-c4ccc(F)c5sc(N)c(C#N)c45)c(C(F)(F)F)cc23)C1 [Compound 242] |  |  |  |  |  |  | 100 to 1000 | 100 to 1000 | < 100 | 100 to 1000 | 100 to 1000 | 100 to 1000 |  |  |  | 
3 | CCN(c1nc(OC[C@H]2C[C@@H](OC)CN2C)nc2c(F)c(-c3ccc(F)c4sc(N)c(C#N)c34)c(C(F)(F)F)cc12)[C@H]1CCN(C(=O)C(C)C)C1 [Compound 592] | 1000 to 10000 | 100 to 1000 | < 100 | 1000 to 10000 | 1000 to 10000 | 1000 to 10000 |  |  |  |  |  |  |  |  |  | 
4 | CN(c1nc(OC[C@@]23CCCN2C[C@H](F)C3)nc2c(F)c(-c3ccc(F)c4sc(N)c(C#N)c34)c(C(F)(F)F)cc12)[C@@H]1CC(=O)N(Cc2ccccc2)C1 [Compound 452] |  |  |  |  |  |  |  | 100 to 1000 | < 100 |  |  |  | 100 to 1000 | 100 to 1000 | 100 to 1000 | 100 to 1000
5 | CCN(c1nc(OC[C@@]23CCCN2C[C@H](F)C3)nc2c(F)c(-c3ccc(F)c4sc(N)c(C#N)c34)c(C(F)(F)F)cc12)[C@H]1C[C@@H](C)N(C(=O)N2CC(OC)C2)C1 (atropisomer, axis not shown) [Compound 734] | 100 to 1000 | < 100 | < 100 | 100 to 1000 | 100 to 1000 | 100 to 1000 |  |  |  |  |  |  |  |  |  | 
6 | CCN(c1nc(OC[C@@]23CCCN2C[C@H](F)C3)nc2c(F)c(-c3ccc(F)c4sc(N)c(C#N)c34)c(C(F)(F)F)cc12)[C@H]1CCN(C(=O)[C@@H]2C[C@H]2C)C1 (atropisomer, axis not shown) [Compound 690] | < 100 | < 100 | < 100 | < 100 | < 100 | < 100 |  |  |  |  |  |  |  |  |  | 
7 | N#Cc1c(N)sc2c(F)ccc(-c3c(C(F)(F)F)cc4c(N5C[C@@H]6[C@H]5CCN6C(=O)C5CC5)nc(OC[C@@]56CCCN5C[C@H](F)C6)nc4c3F)c12 [Compound 535] |  |  |  |  |  |  |  | < 100 | < 100 |  |  |  | 1000 to 10000 | 1000 to 10000 | 1000 to 10000 | 1000 to 10000
8 | CCN(c1nc(OC[C@@]23CCCN2C[C@H](F)C3)nc2c(F)c(-c3ccc(F)c4sc(N)c(C#N)c34)c(C(F)(F)F)cc12)[C@H]1CCN(C(=O)C2CCC2)C1 (atropisomer, axis not shown) [Compound 551] |  |  |  |  |  |  |  | < 100 | < 100 |  |  |  | < 100 | < 100 | < 100 | < 100
9 | N#Cc1c(N)sc2c(F)ccc(-c3c(C(F)(F)F)cc4c(N5CC6C(=O)NC(=O)C6C5)nc(OC[C@@]56CCCN5C[C@H](F)C6)nc4c3F)c12 (stereo partly drawn) [Compound 308] |  |  |  |  |  |  |  | > 1000 | 100 to 1000 |  |  |  | 1000 to 10000 | 100 to 1000 | 1000 to 10000 | 100 to 1000
10 | CCN(c1nc(OC[C@@]23CCCN2C[C@H](F)C3)nc2c(F)c(-c3ccc(F)c4sc(N)c(C#N)c34)c(C(F)(F)F)cc12)[C@H]1C[C@H]2CCOC(=O)N2C1 (atropisomer, axis not shown) [Compound 664] | < 100 | < 100 | < 100 | < 100 | < 100 | < 100 |  |  |  |  |  |  |  |  |  | 
11 | CC(=O)N1C[C@@H](F)[C@H](N(C)c2nc(OC[C@@]34CCCN3C[C@H](F)C4)nc3c(F)c(-c4ccc(F)c5sc(N)c(C#N)c45)c(C(F)(F)F)cc23)C1 [Compound 186] |  |  |  |  |  |  | 100 to 1000 | 100 to 1000 | < 100 | 100 to 1000 | 100 to 1000 | 100 to 1000 |  |  |  | 
